{"source": "paper PMC5641094", "about": "“A peptide antagonist of Prep1-p160 interaction improves ceramide-induced insulin resistance in skeletal muscle cells” (Oncotarget, 2017)", "molecular_target": "T1, Prep1/p160 complex (Rattus norvegicus, UniProt O35821)", "T1 construct": "endogenous in cells; host or cells: L6 rat skeletal muscle cells", "T1 sequence (O35821 1-1344)": "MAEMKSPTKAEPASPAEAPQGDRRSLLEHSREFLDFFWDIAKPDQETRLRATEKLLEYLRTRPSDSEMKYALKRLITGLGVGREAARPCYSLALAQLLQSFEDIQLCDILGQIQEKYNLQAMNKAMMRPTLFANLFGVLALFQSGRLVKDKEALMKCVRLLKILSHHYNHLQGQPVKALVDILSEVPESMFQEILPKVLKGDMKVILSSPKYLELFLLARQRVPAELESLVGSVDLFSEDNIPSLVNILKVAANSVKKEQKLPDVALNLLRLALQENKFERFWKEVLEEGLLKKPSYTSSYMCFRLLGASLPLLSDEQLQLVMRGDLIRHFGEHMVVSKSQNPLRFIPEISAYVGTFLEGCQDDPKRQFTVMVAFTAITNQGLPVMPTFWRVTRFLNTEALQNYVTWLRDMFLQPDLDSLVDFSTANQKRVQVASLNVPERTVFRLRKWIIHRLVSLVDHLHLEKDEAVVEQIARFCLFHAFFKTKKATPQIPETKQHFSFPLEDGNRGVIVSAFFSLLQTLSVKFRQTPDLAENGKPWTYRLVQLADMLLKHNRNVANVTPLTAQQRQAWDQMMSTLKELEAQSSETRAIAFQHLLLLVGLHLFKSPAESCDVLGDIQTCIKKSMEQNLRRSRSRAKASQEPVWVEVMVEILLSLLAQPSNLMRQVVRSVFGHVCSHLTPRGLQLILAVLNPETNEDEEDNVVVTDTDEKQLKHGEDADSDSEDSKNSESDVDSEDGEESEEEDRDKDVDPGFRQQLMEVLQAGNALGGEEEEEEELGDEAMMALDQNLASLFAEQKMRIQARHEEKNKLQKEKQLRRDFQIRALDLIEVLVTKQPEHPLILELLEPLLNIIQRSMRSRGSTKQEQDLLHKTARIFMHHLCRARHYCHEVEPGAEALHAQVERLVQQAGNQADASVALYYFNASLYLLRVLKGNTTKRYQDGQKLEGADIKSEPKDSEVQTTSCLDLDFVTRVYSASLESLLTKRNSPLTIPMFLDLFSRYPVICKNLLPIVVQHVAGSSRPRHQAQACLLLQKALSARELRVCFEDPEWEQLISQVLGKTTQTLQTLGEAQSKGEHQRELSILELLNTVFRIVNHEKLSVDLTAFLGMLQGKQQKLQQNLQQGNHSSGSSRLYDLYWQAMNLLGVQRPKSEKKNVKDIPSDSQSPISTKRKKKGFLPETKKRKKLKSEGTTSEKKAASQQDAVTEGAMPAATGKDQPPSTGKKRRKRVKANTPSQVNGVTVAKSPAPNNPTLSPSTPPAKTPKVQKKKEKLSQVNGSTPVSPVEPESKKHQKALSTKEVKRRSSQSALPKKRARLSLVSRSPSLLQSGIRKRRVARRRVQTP", "assay": "Prep1-p160 co-immunoprecipitation in L6 cells", "format": "cell-based", "protocol": "Figure 2 Effect of ceramides on Prep1 and p160 mRNA expression and of Prep1-p160 coprecipitation L6 cells were treated with C2cer (10μM) for 18h and Prep1 (A) or p160 (B) mRNA levels were analyzed by real-time RT-PCR analysis. Data were normalized by the amount of GAPDH mRNA, used as internal control. Bars represent the mean ± SD of three independent experiments, each performed in triplicate. (C) L6 cells were treated with cycloheximide (CHX) at 40μg/mL concentration for 18h and the lysates were analyzed by Western blot with anti-p160 and beta-actin. The autoradiograph shown is representative of three different experiments and subjected to densitometric analysis. […]\nFigure 3 Design and in vitro effects of Prep1(54-72) peptide on Prep1/p160 association (A) Binding curves of Prep1(59-72) and Prep1(54-72) peptides to p160_20-160 by ELISA-like assays. […] (C) L6 cells were incubated with increasing concentrations of the fluorescein-conjugated peptide (FITC-Prep1(54-72)) and peptide uptake was detected by FACS analysis of fluorescein-labeled cells. […] Protein lysates were immunoprecipitated with Prep1 antibodies and analyzed by Western blot using antibodies for p160 or for Prep1. […] The blots were detected by ECL and autoradiography. […]\nTotal cell lysates were obtained and separated by SDS-PAGE. […] The protein concentrations in the cell lysates were measured using a Bio-Rad DC (detergent compatible) assay. […]", "data": [{"compound": "CCCCCCCCCCCCC/C=C/[C@@H](O)[C@H](CO)NC(C)=O", "note": "[C2cer, D-erythro-Sphingosine, N-Acetyl-, reference compound]", "values": [{"measurement": "induction of Prep1-p160 association", "setting": "C2cer", "value": 80, "unit": "%"}]}, {"compound": "Ac-KQAIYRHPLFPLLALLFEK-NH2 [Prep1(54-72)]", "values": [{"measurement": "effect on ceramide-stimulated Prep1-p160 co-precipitation", "setting": "C2cer 10μM 18h, incubated with Prep1(54-72)", "value": "almost completely reverted"}]}]}
